pEC50: −log10 of the molar value. Where only a bound is given, the exact number is not on record here.

Here are results for 17 compounds from patent US12110305B2, “Prodrugs of phosphonamide nucleotide analogues and their pharmaceutical use” (priority 2020, dated 2024).

In the assay the test system is HIV-1 (IIIB). Description: Antiviral (HIV) assay in MT-4 cells. Format: cell-based. Particulars: Human immunodeficiency virus 1, MT4, 120 h; HIV-1 IIIB in MT-4 cells, 5 days incubation, Cell Titer Glo; average of at least two independent experiments. On the procedure:
Example 104: Antiviral (HIV) Assay in MT-4 Cells
Compounds were tested in a high-throughput 384-well assay format for their ability to inhibit the replication of HIV-1 (IIIB) in MT-4 cells. Compounds were serially diluted (1:3) in DMSO on 384-well polypropylene plates and further diluted 200-fold into complete RPMI media (10% FBS, 1% P/S) using the Biotek Micro Flow and Labcyte ECHO acoustic dispenser. Each plate contained up to 8 test compounds, with negative (no drug) and positive (5 μM AZT) controls. MT-4 cells were pre-treated with 10 μL of either RPMI (mock-infected) or a fresh 1:250 dilution of HIV-1 IIIB concentrated virus stock. Infected and uninfected MT-4 cells were further diluted in complete RPMI media and added to each plate using a Micro Flow dispenser. After 5 days incubation in a humidified and temperature-controlled incubator (37° C.), Cell Titer Glo (Promega) was added to the assay plates and chemiluminescence read using an Envision plate-reader. EC50 values were defined as the compound concentration that causes a 50% decrease in luminescence signal and were calculated using a sigmoidal dose-response model to generate curve fits and are shown in Table 1.
(In general: ATP-based viability assays read luminescence as a measure of living cells.)
Take `C[C@H](Cn1cnc2c(N)ncnc21)OCP(=O)(NC(C)(C)C(=O)OCC12CCC(CC1)CC2)NC(C)(C)C(=O)OCC12CCC(CC1)CC2` [Example 48, Bis(bicyclo[2.2.2]octan-1-ylmethyl) 2,2′-(((((1-(6-amino-9H-purin-9-yl)propan-2-yl)oxy)methyl)phosphoryl)bis(azanediyl))(R)-bis(2-methylpropanoate)]: the pEC50 (in general, the negative decadic logarithm of the EC50, by convention in mol/L) is 8.22. To `CCCCCCOC(=O)C(C)(C)NP(=O)(CO[C@H](C)Cn1cnc2c(NC(=O)OCc3oc(=O)oc3C)ncnc21)NC(C)(C)C(=O)OCCCCCC` [Example 33, Dihexyl 2,2′-(((((1-(6-((((5-methyl-2-oxo-1,3-dioxol-4-yl)methoxy)carbonyl)amino)-9H-purin-9-yl)propan-2-yl)oxy)methyl)phosphoryl)bis(azanediyl))(R)-bis(2-methylpropanoate)] belongs 8.15; to `CC(C)OC(=O)C(C)(C)NP(=O)(CO[C@H](C)Cn1cnc2c(N)ncnc21)NC(C)(C)C(=O)OC(C)C` [Example 43, Diisopropyl 2,2′-(((((1-(6-amino-9H-purin-9-yl)propan-2-yl)oxy)methyl)phosphoryl)bis(azanediyl))(R)-bis(2-methylpropanoate)], 7.70; to `C[C@H](Cn1cnc2c(N)ncnc21)OCP(=O)(NC(C)(C)C(=O)O[C@H](C)C1CCCCC1)NC(C)(C)C(=O)O[C@H](C)C1CCCCC1` [Example 55, Bis((R)-1-cyclohexylethyl) 2,2′-((((((R)-1-(6-amino-9H-purin-9-yl)propan-2-yl)oxy)methyl)phosphoryl)bis(azanediyl))bis(2-methylpropanoate)], 7.00. To `C[C@H](Cn1cnc2c(N)ncnc21)OCP(=O)(NC(C)(C)C(=O)OCCC(C)(C)C)NC(C)(C)C(=O)OCCC(C)(C)C` [Example 8, Bis(3,3-dimethylbutyl) 2,2′-(((((1-(6-amino-9H-purin-9-yl)propan-2-yl)oxy)methyl)phosphoryl)bis(azanediyl))(R)-bis(2-methylpropanoate)] belongs 8.30; to `C[C@H](Cn1cnc2c(N)ncnc21)OCP(=O)(NC(C)(C)C(=O)O[C@H]1C[C@H](C(F)(F)F)C1)NC(C)(C)C(=O)O[C@H]1C[C@H](C(F)(F)F)C1` [Example 26, Bis(trans-3-(trifluoromethyl)cyclobutyl) 2,2′-((((((R)-1-(6-amino-9H-purin-9-yl)propan-2-yl)oxy)methyl)phosphoryl)bis(azanediyl))bis(2-methylpropanoate)], 8.22; to `C[C@H](Cn1cnc2c(N)ncnc21)OCP(=O)(NC(C)(C)C(=O)OC1CC(C)(C)C1)NC(C)(C)C(=O)OC1CC(C)(C)C1` [Example 42, Bis(3,3-dimethylcyclobutyl) 2,2′-(((((1-(6-amino-9H-purin-9-yl)propan-2-yl)oxy)methyl)phosphoryl)bis(azanediyl))(R)-bis(2-methylpropanoate)], 8.70. Turning to `CCCCCCOC(=O)C(C)(C)NP(=O)(CO[C@H](C)Cn1cnc2c(=N)n(Cc3oc(=O)oc3C)cnc21)NC(C)(C)C(=O)OCCCCCC` [Example 83, Dihexyl 2,2′-(((((1-(6-imino-1-((5-methyl-2-oxo-1,3-dioxol-4-yl)methyl)-1,6-dihydro-9H-purin-9-yl)propan-2-yl)oxy)methyl)phosphoryl)bis(azanediyl))(R)-bis(2-methylpropanoate)], the pEC50 was 8.22. Compared with the last compound, the pEC50 is 0.48 log units lower. To `C[C@H](Cn1cnc2c(N)ncnc21)OCP(=O)(NC(C)(C)C(=O)OC1CCCCC1)NC(C)(C)C(=O)OC1CCCCC1` [Example 40, Dicyclohexyl 2,2′-(((((1-(6-amino-9H-purin-9-yl)propan-2-yl)oxy)methyl)phosphoryl)bis(azanediyl))(R)-bis(2-methylpropanoate)] belongs 8.22; to `C[C@H](Cn1cnc2c(N)ncnc21)OCP(=O)(NC(C)(C)C(=O)OC1CCC2(CCC2)CC1)NC(C)(C)C(=O)OC1CCC2(CCC2)CC1` (stereo partly drawn) [Example 63, Di(spiro[3.5]nonan-7-yl) 2,2′-(((((1-(6-amino-9H-purin-9-yl)propan-2-yl)oxy)methyl)phosphoryl)bis(azanediyl))(R)-bis(2-methylpropanoate)], 8.15. To `C[C@H](Cn1cnc2c(N)ncnc21)OCP(=O)(NC(C)(C)C(=O)OC1CCC(C)(C)CC1)NC(C)(C)C(=O)OC1CCC(C)(C)CC1` [Example 44, Bis(4,4-dimethylcyclohexyl) 2,2′-(((((1-(6-amino-9H-purin-9-yl)propan-2-yl)oxy)methyl)phosphoryl)bis(azanediyl))(R)-bis(2-methylpropanoate)] belongs 8.15. `C[C@H](Cn1cnc2c(N)ncnc21)OCP(=O)(NC(C)(C)C(=O)OC1CC(C2CCC2)C1)NC(C)(C)C(=O)OC1CC(C2CCC2)C1` (stereo partly drawn) [Example 90, Di([1,1′-bi(cyclobutan)]-3-yl) 2,2′-(((((1-(6-amino-9H-purin-9-yl)propan-2-yl)oxy)methyl)phosphoryl)bis(azanediyl))(R)-bis(2-methylpropanoate)] gave a pEC50 of 8.15. `CCC(CC)COC(=O)C1(NP(=O)(CO[C@H](C)Cn2cnc3c(N)ncnc32)NC2(C(=O)OCC(CC)CC)CC2)CC1` [Example 70, Bis(2-ethylbutyl) 1,1′-(((((1-(6-amino-9H-purin-9-yl)propan-2-yl)oxy)methyl)phosphoryl)bis(azanediyl))(R)-bis(cyclopropane-1-carboxylate)] had a negative logarithm of the EC50 (pEC50) of less than 6.30. To `CCCCCCOC(=O)C(C)(C)NP(=O)(CO[C@H](C)Cn1cnc2c(NC(=O)OCC(=O)OCc3oc(=O)oc3C)ncnc21)NC(C)(C)C(=O)OCCCCCC` [Example 95, Dihexyl 2,2′-(((((1-(6-(((2-((5-methyl-2-oxo-1,3-dioxol-4-yl)methoxy)-2-oxoethoxy)carbonyl)amino)-9H-purin-9-yl)propan-2-yl)oxy)methyl)phosphoryl)bis(azanediyl))(R)-bis(2-methylpropanoate)] belongs 7.57; to `C[C@H](Cn1cnc2c(N)ncnc21)OCP(=O)(NC(C)(C)C(=O)OCCC1CCCCC1)NC(C)(C)C(=O)OCCC1CCCCC1` [Example 14, Bis(2-cyclohexylethyl) 2,2′-(((((1-(6-amino-9H-purin-9-yl)propan-2-yl)oxy)methyl)phosphoryl)bis(azanediyl))(R)-bis(2-methylpropanoate)], 8.15. In turn, `CCCOC(=O)C(C)(C)NP(=O)(CO[C@H](C)Cn1cnc2c(N)ncnc21)NC(C)(C)C(=O)OCCC` [Example 36, Dipropyl 2,2′-(((((1-(6-amino-9H-purin-9-yl)propan-2-yl)oxy)methyl)phosphoryl)bis(azanediyl))(R)-bis(2-methylpropanoate)] gave a pEC50 of 7.85.

With `CCCCCCOC(=O)C(C)(C)NP(=O)(CO[C@H](C)Cn1cnc2/c(=N\Cc3oc(=O)oc3C)n(Cc3oc(=O)oc3C)cnc21)NC(C)(C)C(=O)OCCCCCC` [Example 84, Dihexyl 2,2′-(((((1-(1-((5-methyl-2-oxo-1,3-dioxol-4-yl)methyl)-6-(((5-methyl-2-oxo-1,3-dioxol-4-yl)methyl)imino)-1,6-dihydro-9H-purin-9-yl)propan-2-yl)oxy)methyl)phosphoryl)bis(azanediyl))(R,E)-bis(2-methylpropanoate)], the pEC50 is 6.64.
